Data from PubChem BioAssay AID248 (DTP/NCI, 2004).
Values joined by “and” are separate entries in the source; they are usually repeats but may differ in a detail not shown here. Equal entries are not always repeated. Inconclusive results and toxic doses are left out. Cut-off read from the data, not from the text of the source: active = T/C of 150% or more; inactive = T/C below 125%.

Test system: L1210 leukemia ip in BDF1 mice, survival T/C
Assay: NCI In Vivo Anticancer Drug Screen. Data for tumor model L1210 Leukemia (intraperitoneal) in B6D2F1 (BDF1) mice
Conditions: endpoint: mean survival time, higher = longer survival
Outline: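 In this screen, tumor-bearing mice given compound are compared to those given vehicle, and their survival values are reported as a treated-to-control quotient.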

[1] = dose: 100.0 mg/kg/injection, schedule: Q01DX009 (ip), vehicle: Klucel (hydroxypropylcellulose) (HPC)
[2] = dose: 100.0 mg/kg/injection, schedule: Q04DX003 (ip), vehicle: Klucel (hydroxypropylcellulose) (HPC)
[3] = dose: 200.0 mg/kg/injection, schedule: Q01DX009 (ip), vehicle: Klucel (hydroxypropylcellulose) (HPC)
[4] = dose: 200.0 mg/kg/injection, schedule: Q04DX003 (ip), vehicle: Klucel (hydroxypropylcellulose) (HPC)
[5] = dose: 100.0 mg/kg/injection, schedule: Q01DX001 (ip), vehicle: carboxymethylcellulose (CMC)
[6] = dose: 100.0 mg/kg/injection, schedule: Q04DX003 (ip), vehicle: saline with Tween-80
[7] = dose: 200.0 mg/kg/injection, schedule: Q01DX001 (ip), vehicle: carboxymethylcellulose (CMC)
[8] = dose: 200.0 mg/kg/injection, schedule: Q04DX003 (ip), vehicle: saline with Tween-80
[9] = dose: 400.0 mg/kg/injection, schedule: Q01DX001 (ip), vehicle: carboxymethylcellulose (CMC)
[10] = dose: 400.0 mg/kg/injection, schedule: Q04DX003 (ip), vehicle: saline with Tween-80
[11] = dose: 100.0 mg/kg/injection, schedule: Q04DX003 (ip), vehicle: saline
[12] = dose: 200.0 mg/kg/injection, schedule: Q04DX003 (ip), vehicle: saline
[13] = dose: 100.0 mg/kg/injection, schedule: Q01DX009 (ip), vehicle: saline
[14] = dose: 200.0 mg/kg/injection, schedule: Q01DX009 (ip), vehicle: saline
[15] = dose: 50.0 mg/kg/injection, schedule: Q04DX003 (ip), vehicle: saline
[16] = dose: 100.0 mg/kg/injection, schedule: Q04DX002 (ip), vehicle: Klucel (hydroxypropylcellulose) (HPC)
[17] = dose: 200.0 mg/kg/injection, schedule: Q04DX002 (ip), vehicle: Klucel (hydroxypropylcellulose) (HPC)
[18] = dose: 400.0 mg/kg/injection, schedule: Q01DX009 (ip), vehicle: Klucel (hydroxypropylcellulose) (HPC)
[19] = dose: 400.0 mg/kg/injection, schedule: Q04DX002 (ip), vehicle: Klucel (hydroxypropylcellulose) (HPC)
[20] = dose: 400.0 mg/kg/injection, schedule: Q04DX003 (ip), vehicle: Klucel (hydroxypropylcellulose) (HPC)
[21] = dose: 25.0 mg/kg/injection, schedule: Q01DX009 (ip), vehicle: Klucel (hydroxypropylcellulose) (HPC)
[22] = dose: 50.0 mg/kg/injection, schedule: Q04DX003 (ip), vehicle: Klucel (hydroxypropylcellulose) (HPC)

Measured: T/C

COc1cccc(C2CCCCCC2OS(=O)(=O)c2ccc(C)cc2)c1OC (configuration not stated)
inactive: dose: 100.0 mg/kg/injection, schedule: Q04DX003 (ip), vehicle: acetone 110 % of control | dose: 200.0 mg/kg/injection, schedule: Q04DX003 (ip), vehicle: acetone 98 % of control | dose: 400.0 mg/kg/injection, schedule: Q04DX003 (ip), vehicle: acetone 103 % of control

COC(=O)C1CC(C)(C)N(C)C1(C)C (configuration not stated)
inactive: [1] 101 % of control | [2] 100 % of control | [3] 106 % of control and 92 % of control | [4] 103 % of control

N#CC(C#N)=C1c2ccccc2C(=O)c2ccccc21
inactive: dose: 50.0 mg/kg/injection, schedule: Q01DX001 (ip), vehicle: carboxymethylcellulose (CMC) 104 % of control | [5] 104 % of control | [6] 97 % of control | [7] 104 % of control | [8] 98 % of control | [9] 106 % of control | [10] 87 % of control

OCCSC1=NCCN1
inactive: [5] 97 % of control | [11] 109 % of control | [7] 100 % of control | [12] 103 % of control | [9] 94 % of control

O=C(CCCN1CCN(c2ccccc2)CC1)c1ccc(F)cc1
inactive: dose: 12.5 mg/kg/injection, schedule: Q01DX009 (ip), vehicle: saline 122 % of control | dose: 25.0 mg/kg/injection, schedule: Q01DX009 (ip), vehicle: saline 106 % of control | dose: 50.0 mg/kg/injection, schedule: Q01DX009 (ip), vehicle: saline 114 % of control | [13] 111 % of control | [14] 103 % of control

NC(N)=NCCCOc1ccc([N+](=O)[O-])cc1
inactive: dose: 25.0 mg/kg/injection, schedule: Q04DX003 (ip), vehicle: saline 96 % of control | [15] 100 % of control | [6] 101 % of control | [11] 94 % of control

CCCC[n+]1cnc(N)c2[nH]cnc21
inactive: [15] 93 % of control | [11] 91 % of control | [12] 100 % of control

CSc1nnc2c3ccccc3ccn12
inactive: [5] 104 % of control | [7] 96 % of control | [9] 93 % of control

NC(=O)Nc1cccc(C(F)(F)F)c1
inactive: dose: 75.0 mg/kg/injection, schedule: Q01DX001 (ip), vehicle: carboxymethylcellulose (CMC) 98 % of control | dose: 150.0 mg/kg/injection, schedule: Q01DX001 (ip), vehicle: carboxymethylcellulose (CMC) 102 % of control | dose: 300.0 mg/kg/injection, schedule: Q01DX001 (ip), vehicle: carboxymethylcellulose (CMC) 103 % of control

ClCCN=Cc1ccc(Cl)cc1
inactive: [1] 96 % of control | [16] 96 % of control | [3] 91 % of control | [17] 100 % of control | [18] 96 % of control | [19] 100 % of control

CCCOc1ccc(Nc2c3ccccc3nc3ccccc23)cc1
inactive: [2] 102 % of control | [4] 96 % of control

CS(=O)(=O)NOCCCCONS(C)(=O)=O
inactive: dose: 100.0 mg/kg/injection, schedule: Q01DX001 (ip), vehicle: saline with Tween-80 103 % of control | dose: 200.0 mg/kg/injection, schedule: Q01DX001 (ip), vehicle: saline with Tween-80 91 % of control | dose: 400.0 mg/kg/injection, schedule: Q01DX001 (ip), vehicle: saline with Tween-80 92 % of control

c1ccc(-c2nc3ccccc3s2)nc1
inactive: [2] 109 % of control | [4] 98 % of control | [20] 88 % of control

OCCN(CC1C(c2ccccc2)C1c1ccccc1)C1CCCCC1 (configuration not stated)
inactive: dose: 6.25 mg/kg/injection, schedule: Q04DX002 (ip), vehicle: Klucel (hydroxypropylcellulose) (HPC) 98 % of control | dose: 25.0 mg/kg/injection, schedule: Q04DX002 (ip), vehicle: Klucel (hydroxypropylcellulose) (HPC) 90 % of control | dose: 50.0 mg/kg/injection, schedule: Q04DX002 (ip), vehicle: Klucel (hydroxypropylcellulose) (HPC) 97 % of control | [16] 97 % of control

COc1cccc(NC(=S)N2CCCCC2)c1
inactive: [1] 108 % of control | [3] 116 % of control | [18] 102 % of control

CCOC(=O)NCC(CCN(C)C)(c1cccc2ccccc12)C(C)C (configuration not stated)
inactive: [13] 98 % of control | [2] 97 % of control | [14] 107 % of control | [4] 97 % of control

OC(C(c1ccccc1)c1ccccn1)(C(F)(F)F)C(F)(F)F (configuration not stated)
inactive: dose: 100.0 mg/kg/injection, schedule: Q01DX009 (ip), vehicle: saline with Tween-80 106 % of control | [6] 94 % of control | dose: 200.0 mg/kg/injection, schedule: Q01DX009 (ip), vehicle: saline with Tween-80 104 % of control | [8] 100 % of control | dose: 400.0 mg/kg/injection, schedule: Q01DX009 (ip), vehicle: saline with Tween-80 97 % of control | [10] 97 % of control

O=C(OCC(OC(=O)c1ccccc1)C1OCC(OC(=O)c2ccccc2)C1OC(=O)c1ccccc1)c1ccccc1 (configuration not stated)
inactive: [6] 88 % of control | [8] 88 % of control | [10] 88 % of control

CC(C)NCc1ccccc1
inactive: dose: 100.0 mg/kg/injection, schedule: Q04DX002 (ip), vehicle: saline with Tween-80 95 % of control | dose: 200.0 mg/kg/injection, schedule: Q04DX002 (ip), vehicle: saline with Tween-80 98 % of control

COc1ccc(OC)c(NC(=O)c2cccc(N(CCO)CCO)c2)c1
inactive: [5] 102 % of control | [7] 94 % of control | [9] 94 % of control

CCCCCCCCCC1(C)OCC(COC(N)=O)O1 (configuration not stated)
inactive: [21] 104 % of control | dose: 25.0 mg/kg/injection, schedule: Q04DX003 (ip), vehicle: Klucel (hydroxypropylcellulose) (HPC) 98 % of control | dose: 50.0 mg/kg/injection, schedule: Q01DX009 (ip), vehicle: Klucel (hydroxypropylcellulose) (HPC) 93 % of control | [22] 96 % of control | [1] 93 % of control | [2] 96 % of control | [3] 98 % of control | [4] 98 % of control | [18] 102 % of control | [20] 98 % of control

O=[N+]([O-])c1ccn(Cc2ccccc2)c1
inactive: [5] 97 % of control | [7] 88 % of control | [9] 92 % of control

O=[As](O)(O)Cc1ccc(F)cc1
inactive: dose: 6.25 mg/kg/injection, schedule: Q01DX009 (ip), vehicle: Klucel (hydroxypropylcellulose) (HPC) 96 % of control | dose: 12.5 mg/kg/injection, schedule: Q01DX009 (ip), vehicle: Klucel (hydroxypropylcellulose) (HPC) 105 % of control | [21] 108 % of control

CC1=CC(=O)C(C)(C(Cl)Cl)C=C1 (configuration not stated)
inactive: [6] 95 % of control | [8] 97 % of control

CCN(CCNC(=O)Nc1ccc(OC)cc1)c1ccccc1
inactive: dose: 100.0 mg/kg/injection, schedule: Q01DX009 (ip), vehicle: carboxymethylcellulose (CMC) 93 % of control and 100 % of control | [16] 103 % of control | dose: 100.0 mg/kg/injection, schedule: Q04DX002 (ip), vehicle: other 94 % of control and 98 % of control | dose: 100.0 mg/kg/injection, schedule: Q04DX003 (ip), vehicle: carboxymethylcellulose (CMC) 96 % of control | dose: 200.0 mg/kg/injection, schedule: Q01DX009 (ip), vehicle: carboxymethylcellulose (CMC) 93 % of control and 104 % of control | [17] 100 % of control | dose: 200.0 mg/kg/injection, schedule: Q04DX002 (ip), vehicle: other 91 % of control | dose: 200.0 mg/kg/injection, schedule: Q04DX003 (ip), vehicle: carboxymethylcellulose (CMC) 100 % of control | dose: 400.0 mg/kg/injection, schedule: Q01DX009 (ip), vehicle: carboxymethylcellulose (CMC) 96 % of control and 100 % of control | [19] 107 % of control | dose: 400.0 mg/kg/injection, schedule: Q04DX002 (ip), vehicle: other 102 % of control and 88 % of control | dose: 400.0 mg/kg/injection, schedule: Q04DX003 (ip), vehicle: carboxymethylcellulose (CMC) 96 % of control

Cc1cc2c(C)c3ccccc3c(C)c2c2ccccc12
inactive: [22] 98 % of control | [2] 95 % of control | [4] 104 % of control

COc1ccc(/C=C(\C#N)c2ccc(C)cc2)cc1OC
inactive: [6] 102 % of control | [8] 100 % of control | [10] 100 % of control
